Publication PMC8745299, “Generation of Lasso Peptide-Based ClpP Binders” (International Journal of Molecular Sciences, 2021)
Values joined by “and” are separate entries in the source; they are usually repeats but may differ in a detail not shown here. Equal entries are not always repeated. Where two headings read alike, the source gives them in different places. Bridge positions count the residues as written; N and C are the ends. Square brackets hold non-standard residues; d marks the D form. Ends that are not written are not given here. Peptide text beside a SMILES is read from it. * marks the point of attachment. Phe(3,5-F2) = N[C@@H](Cc1cc(F)cc(F)c1)C(=O)O; Pro(4R-Me) = C[C@H]1CN[C@H](C(=O)O)C1; Propanoyl(3-cHex) = O=C(CCC1CCCCC1)*; NMeA = CN[C@@H](C)C(=O)O

Key:
BsClpP (monomer) = molecular target: T1, BsClpP (monomer) (Bacillus subtilis, UniProt P80244); test: Peptidase activity of BsClpP, predominantly monomeric preparation; format: biochemical, B. subtilis
T1 construct: His-tag (C); made in house; host or cells: E. coli BL21 (DE3)
Protocol: (§1) Peptide degradation assays were performed in black flat-bottom 96-well plates with a total reaction volume of 100 μL and reaction temperatures of 32 °C and 37 °C for SaClpP and BsClpP, respectively. Stock solutions of ADEP2 and MccJ25 WT or variants were dissolved in DMSO and pre-diluted to 100× of the final concentration. Accordingly, 1 μL of the respective stock solution was placed at the bottom of the wells. […] 50 μL of a 2× enzyme solution (final assay concentration: 1 μM) in activity buffer was added to the plate and incubated for 15 min at 32 °C and 37 °C for SaClpP and BsClpP activity assays, respectively. The enzyme reaction was started by addition of 49 μL of a solution of the fluorogenic model peptide substrate Suc-Leu-Tyr-AMC in activity buffer at a final concentration of 200 μM. For SaClpP assays, the activity buffer was comprised of 100 mM NaCl and 100 mM HEPES at pH 7. […] The fluorescence read-out was measured using a Tecan (Crailsheim, Germany) M200Pro plate reader (excitation/emission: 380/460 nm) every 30–60 s for 1 h. Enzyme velocity was determined by linear regression of the initial segment of the fluorescence-time plot in GraphPad Prism 5 (GraphPad Software, San Diego, CA, USA). […]

BsClpP tetradecamer = molecular target: T2, BsClpP tetradecamer (Bacillus subtilis, UniProt P80244); test: Peptidase activity of pre-purified tetradecameric BsClpP; format: biochemical, B. subtilis; details: read-out: EC50, BsClpP14 peptidase activity
T2 construct: His-tag (C); made in house; host or cells: E. coli BL21 (DE3)
Protocol: as §1

BsClpP = molecular target: T3, BsClpP (Bacillus subtilis, UniProt P80244); test: BsClpP peptidase activity, preparation not specified; format: biochemical, B. subtilis
T3 construct: His-tag (C); made in house; host or cells: E. coli BL21 (DE3)
Protocol: (§2) Peptide degradation assays were performed in black flat-bottom 96-well plates with a total reaction volume of 100 μL and reaction temperatures of 32 °C and 37 °C for SaClpP and BsClpP, respectively. Stock solutions of ADEP2 and MccJ25 WT or variants were dissolved in DMSO and pre-diluted to 100× of the final concentration. Accordingly, 1 μL of the respective stock solution was placed at the bottom of the wells. […] 50 μL of a 2× enzyme solution (final assay concentration: 1 μM) in activity buffer was added to the plate and incubated for 15 min at 32 °C and 37 °C for SaClpP and BsClpP activity assays, respectively. The enzyme reaction was started by addition of 49 μL of a solution of the fluorogenic model peptide substrate Suc-Leu-Tyr-AMC in activity buffer at a final concentration of 200 μM. For SaClpP assays, the activity buffer was comprised of 100 mM NaCl and 100 mM HEPES at pH 7. BsClpP activity buffer (50 mM Tris-HCl, 25 mM MgCl2, 200 mM KCl, 2 mM DTT, pH 8) was used in BsClpP assays as well as in SaClpP experiments, where the buffer composition was supposed to lead to oligomeric breakdown of the SaClpP tetradecamer to allow testing the activity retaining effect of ClpP agonists. The fluorescence read-out was measured using a Tecan (Crailsheim, Germany) M200Pro plate reader (excitation/emission: 380/460 nm) every 30–60 s for 1 h. Enzyme velocity was determined by linear regression of the initial segment of the fluorescence-time plot in GraphPad Prism 5 (GraphPad Software, San Diego, CA, USA). All assays were performed in triplicate and repeated at least two times.

SaClpP [1] = molecular target: T4, SaClpP (Staphylococcus aureus, UniProt Q2G036); test: Peptide (Suc-LY-AMC) degradation by SaClpP in destabilizing Tris buffer pH 8; format: biochemical, S. aureus; set-up: Strep-tag (C); made in house; host or cells: E. coli BL21 (DE3)
T4 sequence (Q2G036 1-195): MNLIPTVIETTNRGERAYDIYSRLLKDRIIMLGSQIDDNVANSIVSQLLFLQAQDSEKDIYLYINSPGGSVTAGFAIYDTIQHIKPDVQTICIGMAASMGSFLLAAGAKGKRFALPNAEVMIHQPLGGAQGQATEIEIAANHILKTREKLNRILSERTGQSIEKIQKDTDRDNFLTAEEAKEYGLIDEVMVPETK
From the text: (§3) In order to assess the different MccJ25 variants, we first chose S. aureus ClpP (SaClpP) as a model peptidase and performed in vitro degradation assays with the fluorogenic model peptide substrate Suc-LY-AMC. […] To investigate whether the MccJ25 variants can exert a stabilizing effect on the oligomeric structure of tetradecameric SaClpP, we conducted peptide degradation assays under destabilizing conditions employing a Tris buffer at pH 8.
This experimental setup was then used to differentiate the MccJ25 variants regarding their effect on ClpP stability. […] The apparent affinity constant was deduced from enzyme activity assays and represents the effector molecule concentration at half maximal stimulation of enzyme activity (the lower the apparent affinity constant, the higher the affinity). To exclude that 12IGF serves as a SaClpP substrate, we incubated a mixture of SaClpP and 12IGF under assay conditions for up to 260 min.
as §2

SaClpP [2] = molecular target: T4, SaClpP; test: Peptide (Suc-LY-AMC) degradation by SaClpP in HEPES buffer pH 7; format: biochemical, S. aureus; set-up: Strep-tag (C); made in house; host or cells: E. coli BL21 (DE3); details: Figure 4A
Protocol: as §3
as §1, with “respectively.” for “respectively. The enzyme reaction was started by addition of 49 μL of a solution of the fluorogenic model peptide substrate Suc-Leu-Tyr-AMC in activity buffer at a final concentration of 200 μM. For SaClpP assays, the activity buffer was comprised of 100 mM NaCl and 100 mM HEPES at pH 7.”

SaClpP [3] = molecular target: T4, SaClpP; test: Analytical gel filtration, SaClpP oligomeric state; set-up: Strep-tag (C); made in house; host or cells: E. coli BL21 (DE3); details: Superdex 200, Tris buffer pH 8, representative experiment from three repetitions
SaClpP [4] = molecular target: T4, SaClpP; test: biochemical; set-up: Strep-tag (C); made in house; host or cells: E. coli BL21 (DE3)
Protocol: Casein degradation assays were performed analogous to peptide degradation assays. Fluorescein-labelled casein (FITC-casein) was employed at final concentrations of 20 μM in the respective activity buffers (see peptide degradation assay). 1 μL of a 100× stock solution of ADEP2 in DMSO was placed at the bottom of the wells followed by the addition of a 2× SaClpP or BsClpP enzyme solution (1 μM final concentration, unless noted otherwise). The mixture was incubated at 32 °C or 37 °C for 15 min and then the reaction was started by the addition of a 2× FITC-casein solution in the corresponding activity buffer. The fluorescence read-out was measured using a Tecan (Crailsheim, Germany) M200Pro plate reader employing an excitation wavelength of 485 nm and an emission wavelength of 535 nm. Enzyme velocity was acquired by linear regression of the initial segment of the fluorescence graph and plotted against ADEP2 concentration. All assays were performed in duplicate or triplicate.

SaClpP [5] = molecular target: T4, SaClpP; set-up: Strep-tag (C); made in house; host or cells: E. coli BL21 (DE3); details: ADEP2 vs natural product ADEP1; ref not given; cited from earlier work
From the text: Figure 3 Grafting of the hydrophobic tripeptide binding motifs onto the MccJ25 lasso peptide scaffold. (A) Schematic of the ClpP tetradecamer and the complete Clp protease complex, i.e., ClpP in concert with ClpX. The interaction between ClpP and the ClpX ATPase occurs between protruding flexible loops of ClpX, carrying the conserved tripeptide motif (L/I/V)-G-(F/L), and the H-pockets of ClpP. The H-pockets are located between two adjacent monomers of ClpP. In the ClpXP complexes of S. aureus and B. subtilis, which we used for our biochemical assays, the respective motif is IGF. (B) The IGF tr ...

[6] = molecular target: B. subtilis ClpP (Bacillus subtilis) (UniProt P80244); test: SEC; BsClpP purified under specific buffer conditions that favor tetradecamer assembly; tetradecameric fraction collected from a gel filtration column (buffers in ref. 43)
[7] = system: ClpPs from different organisms; details: fully assembled ClpX hexamer; cited from earlier work
From the text: ClpX carries six coupled IGF motifs in a rather favorable orientation.

[8] = cited from earlier work
From the text: MccJ25 is exceptionally stable, even for lasso peptide standards.

Enterobacteriaceae = details: cited from earlier work
From the text: (§4) Microcin J25 (MccJ25) is the most well-studied lasso peptide (Figure 2A). […] MccJ25 enters its target cells through hijacking the TonB-dependent siderophore receptor FhuA [8, 19, 20] which explains its narrow activity spectrum. MccJ25 originates from Escherichia coli AY25 [13] and thus can be produced very well heterolo ...

[9] = system: Gram-negative RNA polymerase; details: blocking of NTP uptake channel; cited from earlier work
From the text: as §4

thermolysin = details: cleavage e.g. between Phe10 and Val11; gas phase and solution; cited from earlier work
[10] = molecular target: T5, S. aureus ClpP (Staphylococcus aureus), Q2G036; test: SEC; analytical gel filtration, Superdex 200 3.2 Increase; SaClpP in Tris buffer pH 8 (50 mM Tris-HCl, 25 mM MgCl2, 200 mM KCl, 2 mM DTT) with 12IGF; details: remark: other sources report otherwise
T5 chain: T4 sequence (Q2G036 1-195)

[11] = molecular target: T5, S. aureus ClpP (Staphylococcus aureus), …; test: SEC; analytical gel filtration, Superdex 200 3.2 Increase; SaClpP in Tris buffer pH 8 (50 mM Tris-HCl, 25 mM MgCl2, 200 mM KCl, 2 mM DTT) with ADEP2; details: remark: other sources report otherwise
[12] = molecular target: T5, S. aureus ClpP (Staphylococcus aureus), …; test: SEC; analytical gel filtration, Superdex 200 3.2 Increase; SaClpP diluted 10x in BsClpP activity buffer (50 mM Tris-HCl, 25 mM MgCl2, 200 mM KCl, 2 mM DTT, pH 8), no effector; details: remark: other sources report otherwise
[13] = molecular target: T5, S. aureus ClpP (Staphylococcus aureus), …; test: SEC; gel filtration of apo-SaClpP in HEPES buffer, pH 7 (purification: Superdex 200 HiLoad 16/600, 100 mM NaCl, 20 mM HEPES, pH 7; analytical: Superdex 200 3.2 Increase, 100 mM HEPES, 100 mM NaCl, pH 7); details: remark: other sources report otherwise

T3 sequence (P80244 whole entry): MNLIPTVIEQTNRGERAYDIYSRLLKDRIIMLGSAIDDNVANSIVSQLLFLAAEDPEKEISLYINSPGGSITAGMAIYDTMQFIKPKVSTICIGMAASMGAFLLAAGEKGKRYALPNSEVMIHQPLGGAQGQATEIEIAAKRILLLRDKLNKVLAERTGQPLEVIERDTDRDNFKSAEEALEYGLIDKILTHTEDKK
T1 sequence (P80244 whole entry): as above
T2 sequence (P80244 whole entry): as above

Molecule: CC[C@H](C)[C@H](NC(=O)[C@@H](NC(=O)[C@H](Cc1ccccc1)NC(=O)[C@H](Cc1ccc(O)cc1)NC(=O)[C@@H]1CCC(=O)NCC(=O)NCC(=O)N[C@@H](C)C(=O)NCC(=O)N[C@@H](Cc2c[nH]cn2)C(=O)N[C@@H](C(C)C)C(=O)N2CCC[C@H]2C(=O)N1)C(C)C)C(=O)NCC(=O)N[C@@H](Cc1ccccc1)C(=O)N[C@H](C(=O)N1CCC[C@H]1C(=O)N[C@H](C(=O)N[C@@H](CO)C(=O)N[C@@H](Cc1ccccc1)C(=O)N[C@@H](Cc1ccc(O)cc1)C(=O)NCC(=O)O)[C@@H](C)CC)[C@@H](C)O [12IGF] (GGAGHVPEYFVIGFTPISFYG-OH; lactam N-8)
- EC50 (BsClpP (monomer); 5 μM ADEP2, Tris pH 8, 37 °C, ± S.D., two separate experiments, read-out: EC50, BsClpP1 peptidase activity (+ADEP2)): 60.2 ± 3.78 µM
- EC50 (BsClpP (monomer); with ADEP2 (Figure 5C), Tris pH 8, 37 °C, read-out: apparent affinity constant, BsClpP activation in the presence of ADEP2): 60 µM
- EC50 (BsClpP tetradecamer): 60.3 ± 12.1 µM
- EC50 relative to ADEP (BsClpP; 12IGF EC50 in SaClpP and BsClpP peptidase assays vs EC50 values measured for ADEP): exceeded the EC50 values measured for ADEP by one to two orders of magnitude
- EC50 (BsClpP; Figure 5C,D, with or without ADEP2 not specified, 37 °C): 60 µM
- EC50 (SaClpP [1]; Tris buffer pH 8, 1 μM SaClpP, 200 μM Suc-Leu-Tyr-AMC, 32 °C, 15 min pre-incubation, fluorescence 380/460 nm, ± S.D., three independent experiments, read-out: EC50, stabilizing effect on SaClpP peptidase activity): 26 ± 3.32 µM
- EC50 (SaClpP [1]; Tris buffer pH 8, effector concentration at half maximal stimulation of enzyme activity, 32 °C, Suc-Leu-Tyr-AMC, read-out: apparent affinity constant, stabilizing effect on SaClpP peptidase activity): ~26 µM and 26 µM

Molecule: C[C@@H]1C[C@H]2C(=O)OC[C@H](NC(=O)[C@H](Cc3cc(F)cc(F)c3)NC(=O)CCC3CCCCC3)C(=O)N3CCC[C@H]3C(=O)N(C)[C@@H](C)C(=O)N[C@@H](C)C(=O)N2C1 [ADEP2] ({Propanoyl(3-cHex)}-[Phe(3,5-F2)]SP[NMeA]A[Pro(4R-Me)]; ester 2-C)
- SaClpP peptidase activity retained in the presence of ADEP2 (SaClpP [1]; Tris buffer pH 8, Figure 4A): a substantial extent of the original activity (observed in the favorable HEPES buffer at pH 7) was retained in the presence of ADEP2
- SaClpP peptidase activity enhancement (SaClpP [2]): enhanced weakly
- SaClpP tetradecamer integrity (SaClpP [3]): Inactivation by oligomeric breakdown in Tris buffer at pH 8 can be circumvented by the addition of ADEP2
- EC50 (SaClpP [4]): 0.304 ± 0.179 µM
- affinity for SaClpP (SaClpP [5]): increased affinity for SaClpP

Molecule: B. subtilis ClpP (from UniProt P80244 1-197) (enzyme)
- stoichiometry N [6]: 14

Molecule: ClpX: Clp-ATPase ClpX hexamer carrying six coupled IGF motifs
- ClpP affinity relative to ADEP2 [7]: weaker affinities than ADEP2

Molecule: microcin J25 (GGAGHVPEYFVGIGTPISFYG; lactam N-8; also: lasso topology, tail threaded through ring) [WT MccJ25, wild type lasso peptide from Escherichia coli AY25]
- effect on BsClpP activity (BsClpP; summary in discussion): neither WT MccJ25 nor several of the other mutated variants constructed in this study affected either of the ClpPs
- thermal stability [8]: withstand autoclaving at 120 °C
- antibiotic activity (Enterobacteriaceae): exhibits antibiotic activity against Enterobacteriaceae
- RNA polymerase inhibition [9]: inhibition of the Gram-negative RNA polymerase
- stability of [2]rotaxane after loop hydrolysis by thermolysin (thermolysin): does not cause ring and tail to dissociate
- SaClpP peptidase activity retained in Tris buffer (SaClpP [1]; Tris buffer pH 8, 46 μM lasso peptide (Figure 4C), 32 °C, three independent experiments): only the three variants carrying the canonical tripeptide motif at positions 12–14 were able to retain SaClpP activity in Tris buffer
- effect on SaClpP activity (SaClpP [1]; summary in discussion): neither WT MccJ25 nor several of the other mutated variants constructed in this study affected either of the ClpPs

B1: S. aureus ClpP, Q2G036 1-195 (enzyme)
chain: T4 sequence (Q2G036 1-195)
- stoichiometry N [10]: 14
- stoichiometry N [11]: 14
- stoichiometry N [12]: 7
- stoichiometry N [13]: 14
